What was measured:
TX synthase (TXS) = molecular target: T1, TX synthase (TXS) (Homo sapiens, UniProt P24557); experiment: TXB2 synthesis following addition of exogenous PGH2 to U937 cells; type: cell-based; settings: 1, 10, 100 μM, undifferentiated U937 cells, PGH2 5 μM
T1 construct: endogenous in cells; host or cells: undifferentiated U937 cells
T1 sequence (P24557 1-533): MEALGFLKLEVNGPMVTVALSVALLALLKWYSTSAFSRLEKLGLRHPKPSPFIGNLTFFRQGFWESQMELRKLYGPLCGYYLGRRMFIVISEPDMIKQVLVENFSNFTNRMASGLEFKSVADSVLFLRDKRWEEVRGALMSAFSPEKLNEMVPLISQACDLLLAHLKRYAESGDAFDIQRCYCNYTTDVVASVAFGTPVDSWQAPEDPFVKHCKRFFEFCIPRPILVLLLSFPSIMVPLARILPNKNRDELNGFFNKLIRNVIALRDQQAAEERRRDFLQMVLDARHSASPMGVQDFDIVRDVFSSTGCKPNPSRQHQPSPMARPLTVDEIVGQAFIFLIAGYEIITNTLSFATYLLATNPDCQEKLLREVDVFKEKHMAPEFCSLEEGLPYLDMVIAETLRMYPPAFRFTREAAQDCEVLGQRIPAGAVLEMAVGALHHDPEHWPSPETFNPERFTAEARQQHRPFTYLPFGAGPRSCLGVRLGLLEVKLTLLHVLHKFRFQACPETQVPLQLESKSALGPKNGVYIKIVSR
Description: To examine effects of test compounds directly on TX synthase (TXS), a different assay system was used. Whereas arachidonic acid (AA) is the substrate for COX, PGH2 is the substrate for TX synthase. To examine directly the effect of these compounds on TXS, exogenous ? elow:
Test compounds at 0 μM, 1 μM, 10 μM and 100 μM (in DMSO) were incubated with undifferentiated U937 cells (6×10^6/ml) for 30 min at 37° C., after which PGH2 (5 μM) was added. After incubation for 10 min, the reaction was terminated by centrifugation and the supernatants were collected and TXB2 production was measured in triplicate by RIA. ANOVA followed by Newman-Keuls multiple comparisons test was used to examine differences between doses and the control values. A statistical significance level of 0.05 was used and differences from control values are indicated by an asterisk (*).

[1] = system: NO synthesis in mouse macrophage cell line RAW 264.7; experiment: Inhibition of nitric oxide synthesis (Griess reaction); type: cell-based; settings: 10 μM
Description: Exposure of various cells (e.g. macrophages and smooth muscle cells) to bacterial LPS and proinflammatory cytokines induces iNOS which generates NO. NO production can be indirectly quantified by measurement of nitrite (NO2—), a stable breakdown product of NO. The mouse macrophage cell line RAW 264.7 was cultured in DMEM supplemented with FCS, 2 mM glutamine and 50 U/ml penicillin/streptomycin. Cells were treated with either test compound at 10 μM (in 0.125% DMSO) or vehicle alone, together with 10 ng/ml LPS. After incubation for 24 hrs, culture media was collected and analysed immediately for NO concentration using the Griess reaction (Eigler et al. 1995).

female BALB/c mice = experiment: Absence of gastrointestinal toxicity, gavage for 10 days; type: in vivo; settings: 5 mg/kg via gavage for 10 days
Description: Compound 2 at 5 mg/kg (n=3) or vehicle (PEG 400:PBS1:1; n=2) was administered via gavage to female BALB/c mice for 10 days. […] Histology of cecum and colon were normal.
The diastereoisomeric mixture of Compounds 3a and 3b in PEG 400:PBS1:1 was administered to 7 week old female BALB/c mice (n=8) by gavage at 20 mg/kg daily for 10 days. There was no vehicle control group for comparison.
Compound 4 at 5 mg/kg (n=3) or vehicle (n=2, PEG:PBS 1:1) was administered via gavage to female BALB/c mice for 10 days. […] Histology of cecum and colon were normal.

[2] = system: inflammed rat air pouches (serum-treated zymozan); experiment: Rat air pouch assay; type: in vivo, rats (Dark Agouti); settings: At 1 mM application
NFκB promoter activity = experiment: Inhibition of NFκB promoter activity (β-lactamase reporter) in TNFα-stimulated THP-1 cells; type: cell-based, human; settings: 5 h
Description: Human macrophage THP-1 cells, modified to include the β-lactamase reporter gene, were seeded into wells of a 96-well plate (50×10^3 cells/well) in the presence of RPMI 1640 medium (70 μl). TNFα (7.5 ng/ml) and human sera (final concentration of 20%) were added to each well. Plates were incubated for 5 h at 37° C. to allow for NFkB-stimulated β-lactamase production. LiveBLAzer™ FRET B/G Substrate (CCF4-AM) was then added to assay for β-lactamase activity. Once CCFA-AM enters a cell, it is converted to negatively charged CCF4 by endogenous esterases. Excitation of this substrate at 409 nm leads to efficient FRET between the coumarin and fluorescein moieties, resulting in a green fluorescence detectable at 530 nm. The presence of β-lactamase leads to cleavage of CCF4 and results in a loss of FRET, resulting in a robust blue fluorescent signal detectable at 460 nm. Thus, activity of beta-lactamase (a marker of NFkB-promoter activity) is measured as a product to substrate ratio (blue/green fluorescence ratio: 460 nm/530 nm).

Sprague Dawley rats = experiment: Oral toxicity of Compound 1 administered daily for 11 days; type: in vivo; settings: 300 mg/kg and 1000 mg/kg oral daily for 11 days in CMC 0.1%
Description: Oral toxicity of Compound 1 when administered daily for 11 days was investigated. Compound 1 in CMC 0.1% as administered at the very high doses of 300 mg/kg and the limit dose of 1000 mg/kg to groups of four Sprague Dawley rats (two of each gender). Vehicle was administered to a third group.
(§1) The formulation of Compound 1 in CMC 0.1% was stable over a seven day period at both 4° C., 25° C. and 40° C. Fresh batches of Compound 1 were supplied after day seven. Bodyweights were measured immediately before administration, then at day eight and again at culling on day 12. All rats were observed daily for signs of toxicity throughout the experimental period. At necropsy, gross examination of the external surface of the body, all orifices and the thoracic and abdominal cavities and their contents was carried out. Liver, kidney, adrenals, spleen and gonads were weighed. Terminal hematology, serum biochemistry and histology of the liver, spleen and bone marrow was done.

[3] = Stability of formulation in CMC 0.1%; type: physicochemical; settings: seven day period, 4° C., 25° C. and 40° C.
Description: as §1

Compound	thromboxane synthase inhibition (TXB2 synthesis after exogenous PGH2), selectivity in words (TX synthase (TXS))	NO synthesis, direction of effect in words [1]	adverse clinical signs (female BALB/c mice)	body weight changes versus vehicle (female BALB/c mice)	gross pathological changes at necropsy (female BALB/c mice)	histology of cecum and colon (female BALB/c mice)	number of polymorphs in the tissue sections, in words [2]	inhibition of NFκB compared to vehicle control (NFκB promoter activity)	evidence of toxicity (Sprague Dawley rats)	stability of the formulation [3]
O=C1c2cc(Cl)c(O)cc2OCC1c1ccc(O)cc1 (stereo not shown) [Compound 4]	selective thromboxane synthase inhibitors	induced it	no adverse clinical signs	similar	no gross pathological changes	normal	suppressed the number of polymorphs	–	–	–
Oc1ccc(C2COc3c(ccc(O)c3O)C2O)cc1 (stereo not shown) [Compound 2]	selective thromboxane synthase inhibitors	induced it	no adverse clinical signs	similar	no gross pathological changes	normal	suppressed the number of polymorphs	significantly (p<0.001) inhibited	–	–
O=C1c2ccc(O)c(Br)c2OCC1c1ccc(O)cc1 (stereo not shown) [Compound 1, 3-(4-hydroxyphenyl)-7-hydroxy-8-bromo-chroman-4-one]	selective thromboxane synthase inhibitors	inhibited NO synthesis	–	–	–	–	–	–	no evidence of toxicity of any kind	stable

From patent US20090131513A1, “ANTI-INFLAMMATORY MODALITIES” (Novogen Research Pty Ltd., priority 2005, published 2009)
